Assay results reported in ChEMBL document CHEMBL1154198, “Chemical genetics of Plasmodium falciparum” (Nature, 2010).

Experiments:
[1] = system: Plasmodium falciparum; test: ST_JUDE: Plasmodium falciparum K1 EC50 (uM) as measured by SYBR green dye; type: functional, organism-based
[2] = system: Plasmodium falciparum; test: ST_JUDE: Plasmodium falciparum 3D7 EC50 (uM) as measured by SYBR green dye; type: functional, organism-based

Row | Compound | EC50 [1] | EC50 [2]
1 | O=C(O)c1ccc(CN2C(=O)c3ccccc3C2=O)cc1 | > 15 µM | > 15 µM
2 | CCCOc1cc(O)c(-c2[nH]nc(C)c2Oc2ccccc2)cc1CC | 2.1 µM | 3.83 µM
3 | CCCCn1c(C)c(C(=O)OCC)c2cc(OC(C)=O)c(Br)cc21 | > 15 µM | 2.76 µM
4 | CCCC(=O)NC(c1ccc(C)cc1)c1ccc2cccnc2c1O (centres undefined) | > 15 µM | 4.21 µM
5 | COc1ccc(OC)c(C2CC(=O)C3=C(C2)NC(=O)CC3c2ccc(OC)c(OC)c2)c1 (centres undefined) | 3.79 µM | 2.41 µM
6 | Cc1c(C=O)c2ccccc2n1CC(=O)Nc1cccc(I)c1 | 3.03 µM | 3 µM
7 | Oc1c(C(Nc2ccccn2)c2ccc(Br)cc2)ccc2cccnc12 (centres undefined) | 2.84 µM | 1.22 µM
8 | CCOc1ccc(-c2nonc2NC(=O)c2ccccc2Cl)cc1OCC | 0.538 µM | 0.49 µM
9 | CCOc1ccc2nc(C)cc(Nc3cccc(OC)c3)c2c1 | 6.76 µM | 3.41 µM
10 | CCc1ccc(C2c3c(-c4ccccc4O)n[nH]c3C(=O)N2CCCOC(C)C)cc1 (centres undefined) | > 15 µM | > 15 µM
11 | Cc1ccc2c(c1)c1c(n2CC(O)CNC2CCCC2)CCCC1 (centres undefined) | 1.72 µM | 2.9 µM
12 | O=C(N1CCCN(C(=O)C(Cl)(Cl)Cl)CC1)C(Cl)(Cl)Cl | 2.23 µM | 3.42 µM
13 | CN(C)CCNCCCOc1ccc(Cl)cc1Cc1ccccc1 | > 15 µM | 5.82 µM
14 | CCCOc1ccc(CSC2=NCCN2)cc1[N+](=O)[O-] | 6.96 µM | 6.86 µM
15 | Cc1nnc(NCCN2CCOCC2)nc1O | > 15 µM | > 15 µM
16 | CCc1cc(-c2[nH]ncc2-c2ccc(F)cc2)c(O)cc1OC | > 15 µM | > 15 µM
17 | O=C1C(Nc2cccc(F)c2)=C(N2CCCCC2)C(=O)c2ccccc21 | 0.471 µM | 0.261 µM
18 | O=C(CCNc1ccc(Oc2ccccc2)cc1)c1ccco1 | > 15 µM | > 15 µM
19 | CCCCn1nnnc1NCc1cc(Cl)c(OC)c(OC)c1 | > 15 µM | 5.86 µM
20 | CO/C(O)=C1\C(C)=NC2=C(C(=O)CC(c3ccccc3Cl)C2)C1c1ccc(OC)c(OC)c1 (centres undefined) | 9.39 µM | > 15 µM
21 | CCC(=O)NC(c1ccc(Cl)cc1)c1ccc2cccnc2c1O (centres undefined) | 1.81 µM | 2.05 µM
22 | Cc1ccnc(NC(c2ccc([N+](=O)[O-])cc2)c2ccc3cccnc3c2O)c1 (centres undefined) | 3.7 µM | 1.81 µM

Row | Compound | EC50 [1] | EC50 [2]
23 | CCCCN1COc2c(c3c(C(C)=O)c(C)oc3c3ccccc23)C1 | 4.31 µM | > 15 µM
24 | COC(=O)C1=C(C(=O)OC)C2(OC1c1cccc(F)c1)C(=O)c1ccccc1C2=O (centres undefined) | > 15 µM | 3.97 µM
25 | Cc1cc(Cl)c(S(=O)(=O)N(C)C)cc1OCC(=O)Nc1ccccc1 | > 15 µM | > 15 µM
26 | C=CCOC(=O)C1=C(C)N=C(C)/C(=C(\O)OCC=C)C1c1ccc(OC)c(OC)c1 (centres undefined) | 5.93 µM | 4.4 µM
27 | CCc1c2cccn2cc[n+]1C | 6.08 µM | 7.07 µM
28 | Cc1ccsc1CN(C(=O)COc1ccc(C(C)C)cc1)C1CCS(=O)(=O)C1 (centres undefined) | > 15 µM | > 15 µM
29 | CCOc1ccc(/C=c2\sc3n(c2=O)CN(c2cccc(F)c2)CN=3)cc1 | > 15 µM | > 15 µM
30 | CC(C)(C)CC(C)(C)NCC(O)COc1ccc2c(c1)CCC2 (centres undefined) | 1.22 µM | 4.42 µM
31 | COc1ccc(N2C(=O)/C(=C/Nc3ccccc3OC)c3ccccc3C2=O)cc1 | > 15 µM | > 15 µM
32 | O=C(Nc1ccc(Cl)cc1)C1c2ccccc2C(=O)N(C2CCCC2)C1c1cccs1 (centres undefined) | 1.07 µM | 0.556 µM
33 | Cc1n[nH]c(-c2ccc(OC(C)C)cc2O)c1Oc1ccccc1 | 2.91 µM | 5.66 µM
34 | CCN(CC)C(=O)c1ccc2c(c1)N(Cc1ccccc1)C(=O)c1ccccc1S2(=O)=O | > 15 µM | > 15 µM
35 | O=C(CC1N=C2c3ccccc3N=C(SCc3ccc(F)cc3)N2C1=O)NCc1ccco1 (centres undefined) | 5.69 µM | 8.19 µM
36 | CNc1c([N+](=O)[O-])nn(-c2ccc(Cl)cc2)[n+]1[O-] | 3.76 µM | > 15 µM
37 | CN(C)c1ccc(/C=C/c2cc(/C=C/c3ccc(N(C)C)cc3)n3n[n+](C)nc3n2)cc1.[O-][Cl+3]([O-])([O-])[O-] | 0.514 µM | 0.641 µM
38 | CCOC(=O)C1=C(C)N=c2s/c(=C\c3cc(OC)ccc3O)c(=O)n2C1c1ccccc1 (centres undefined) | > 15 µM | > 15 µM
39 | CCC[N+]1(C)CCC2C(C1)c1ccccc1N2Cc1ccccc1 (centres undefined) | > 15 µM | 4.25 µM
40 | CCc1cccc2c(C#N)cn(CCOc3ccccc3Cl)c12 | 0.577 µM | 0.516 µM
41 | O=[N+]([O-])c1ccc(S(=O)(=O)N2CCN(C3CCC(c4ccccc4)CC3)CC2)cc1 (centres undefined) | > 15 µM | > 15 µM
42 | CCCCC(O)(c1ccc(OC)cc1)C(CN1CCCCC1)c1ccccc1 (centres undefined) | 2.73 µM | 4.6 µM
43 | CCOCCCn1c(=N)c(C(=O)NCc2cccnc2)cc2c(=O)n3cccc(C)c3nc21 | > 15 µM | > 15 µM
44 | C=CCc1cccc(/C=N/NC(=O)c2cccs2)c1O | 6.81 µM | > 15 µM

Row | Compound | EC50 [1] | EC50 [2]
45 | Cc1ccc(Nc2c(-c3ccccn3)nc3ccc(C)cn23)cc1 | > 15 µM | 3.93 µM
46 | O=C(Cc1ccccc1)NC(c1ccc(Cl)cc1)c1c(O)ccc2ccccc12 (centres undefined) | > 15 µM | > 15 µM
47 | CCOC(=O)c1c(NC(=S)NCCc2ccccc2)sc2c1CC(C)(C)OC2 | > 15 µM | > 15 µM
48 | CC1CCN(Cc2c(O)ccc3ccccc23)CC1 | 0.492 µM | 0.368 µM
49 | CC(=O)NC(c1ccccc1Cl)c1ccc2cccnc2c1O (centres undefined) | 3.79 µM | 3.39 µM
50 | COc1cc(/C=C/c2ccc3cccc(OC(C)=O)c3n2)cc(Cl)c1OC | 6.11 µM | > 15 µM
51 | CCN1/C(=C/c2sc3ccc(C(=O)OC)cc3[n+]2CC)C=Cc2cc(OC)ccc21 | 0.154 µM | 0.0668 µM
52 | CC(C)c1ccc(NC(=O)CSc2n[nH]c(-c3ccccc3Cl)n2)cc1 | 4.96 µM | 4.78 µM
53 | O=C(Nc1ccc2oc(-c3ccc(F)cc3Cl)nc2c1)C(Cl)(Cl)Cl | > 15 µM | > 15 µM
54 | CCCCCCCCc1c(C)c(C#N)c2nc3ccccc3n2c1-n1cnc2ccccc21 | > 15 µM | > 15 µM
55 | O=C(Nc1ccc(Cl)c(Cl)c1)c1ccc(-c2ccccc2)cc1 | > 15 µM | > 15 µM
56 | CN1/C(=C/c2cccc[n+]2CCO)Sc2ccccc21 | 1.2 µM | 1.79 µM
57 | Cc1ccc(NC2=NC(=O)CC(C(=O)Nc3ccc(C(C)C)cc3)S2)cc1C (centres undefined) | > 15 µM | > 15 µM
58 | CCOCc1cc(CN2CCN(c3cccc(C(F)(F)F)c3)CC2)c(O)c2ncccc12 | 1.49 µM | 1.41 µM
59 | N=C(N)N/N=C/c1ccncc1 | > 15 µM | 3.49 µM
60 | CCCOc1cc(Br)c(C2NC(S)=NC(c3ccccc3)=C2C(C)=O)cc1OCC (centres undefined) | 4.24 µM | > 15 µM
61 | CC(C)CN1CCN(Cc2cc(Cl)ccc2O)CC1CCO (centres undefined) | 4.82 µM | > 15 µM
62 | C[n+]1ccc(C=Cc2ccc(O)cc2)cc1 | 4.01 µM | 3.97 µM
63 | CCc1nc2sc(C(c3cccc(F)c3)N3CCN(c4ccc(OC)cc4)CC3)c(O)n2n1 (centres undefined) | > 15 µM | > 15 µM
64 | COc1ccc2c(c1OC)C(=O)N1c3ccccc3N=C(c3ccc(C)cc3)CC21 (centres undefined) | 1.7 µM | 2.53 µM
65 | CC(=O)N(C1=C(N2CCOCC2)C(=O)c2ccccc2C1=O)c1ccc(F)cc1 | 0.548 µM | 0.51 µM
66 | CCOc1cc(C2C3=C(O)CC(c4ccc(Cl)cc4)CC3=NC(C)=C2C(=O)OC(C)C)ccc1O (centres undefined) | 1.62 µM | 1.54 µM

Row | Compound | EC50 [1] | EC50 [2]
67 | CCCCC(=O)NC(c1ccc(N(CC)CC)cc1)c1ccc2cccnc2c1O (centres undefined) | 3.01 µM | 1.65 µM
68 | CC(=O)Nc1ccc(S(=O)(=O)N2CCN(c3ccc(Nc4ccccc4)nn3)CC2)cc1 | > 15 µM | 7.32 µM
69 | CCN(CC)CCOC(=O)c1ccc(NC(=O)c2cc3cc4cc(OC)ccc4nc3s2)cc1 | 3.31 µM | 1.7 µM
70 | CCN(CC)c1ccc(C2NC(=O)NC(O)(C(F)(F)F)C2C(=O)c2cccnc2)cc1 (centres undefined) | 8.42 µM | 9.06 µM
71 | CCOCCn1/c(=N/C(=O)COc2ccc(Cl)cc2)sc2cc(OCC)ccc21 | > 15 µM | > 15 µM
72 | CCOC(=O)C1=C(C)N=c2s/c(=C\c3ccc(O)cc3)c(=O)n2C1c1ccc(OC)c(OCC)c1 (centres undefined) | > 15 µM | 0.77 µM
73 | COc1ccc(CNCCc2ccc(F)cc2)cc1C | > 15 µM | > 15 µM
74 | CCCCCn1c(=N)n(CC(O)COc2cccc(C)c2)c2ccccc21 (centres undefined) | 1.36 µM | 2.65 µM
75 | CC(C)(C)c1ccc(C(=O)Nc2c3c(nn2-c2ccc([N+](=O)[O-])cc2)CS(=O)(=O)C3)cc1 | 3.09 µM | 10.6 µM
76 | O=C(Nc1ccccc1-c1ccccc1)C(Cl)(Cl)Cl | 1.15 µM | 1.56 µM
77 | COc1ccc(OC)c(NC(=O)C2c3ccccc3C(=O)N(C)C2c2cccs2)c1 (centres undefined) | 4.28 µM | > 15 µM
78 | CCC(C)c1ccc(NC(=O)c2cc(Br)ccc2OC)c(O)c1 (centres undefined) | 2.11 µM | 6.05 µM
79 | CCC(=O)C1=C(c2ccc(F)cc2)N(C(=O)CC)n2cnnc2S1 | > 15 µM | > 15 µM
80 | O=C(CSc1nccn1Cc1ccccc1Cl)Nc1cc(C(F)(F)F)ccc1Cl | 1.39 µM | > 15 µM
81 | CCN(CC)c1ccc(/C=N/NC(=O)c2cccc(NC(=O)c3ccc(C)cc3)c2)c(O)c1 | > 15 µM | 5.46 µM
82 | O=[N+]([O-])c1cc(C(F)(F)F)ccc1NCCCNS(=O)(=O)c1ccc(Cl)cc1 | > 15 µM | > 15 µM
83 | CCCCc1ccc(NC(=O)CSc2nc3c(c(=O)n2C)SC(C)C3)cc1 (centres undefined) | 2.05 µM | 2.93 µM
84 | CCN1C(=O)c2ccccc2Sc2ccc(NC(=O)NCc3ccccc3Cl)cc21 | > 15 µM | > 15 µM
85 | CCO/C(O)=C1\C(C)=NC2=C(C(=O)CC(c3ccc(Cl)cc3)C2)C1c1cc(F)ccc1F (centres undefined) | > 15 µM | > 15 µM
86 | Cc1cccc(-n2ccnc2SCC(=O)Nc2cccc(F)c2)c1C | 7.99 µM | > 15 µM
87 | CCCCN(C)Cc1c(O)ccc2c(=O)c(Oc3ccccc3OCC)c(C(F)(F)F)oc12 | 1.47 µM | 2 µM
